Laboratory results: patent US20080058381A1, “COMBINATION OF A CB1 RECEPTOR ANTAGONIST AND OF SIBUTRAMINE, THE PHARMACEUTICAL COMPOSITIONS COMPRISING THEM AND THEIR USE IN THE TREATMENT OF OBESITY” (priority 2000, published 2008)

Test system: Obese Fa/fa Zucker rats
Test: Effect on food intake (food consumption) in obese Zucker rats, five days of oral treatment
Type: in vivo, rat
Conditions: daily for 5 days
Description: The synergistic effect of the combination of sibutramine and of a CB1 receptor antagonist on food intake was determined according to the following protocol:
Obese Fa/fa Zucker rats aged 7 weeks and originating from Iffa-Credo, France, were used in this study. The rats are housed in individual cages and weighed every day between 8 and 10 o'clock in the morning. The amount of food is also weighed each morning at the same time. This food (M20, Pietrement, France) is changed every day and the rats have free access thereto for 24 hours. All the rats are treated for a week with the vehicle (miglyol 812N and 0.5% methylcellulose/0.2% polysorbate 80) in two consecutive administrations. The rats are treated from the 8th day with the vehicle, the CB1 receptor antagonist (1-[bis(4-chlorophenyl)methyl]-3-[(3,5-difluorophenyl)-(methylsulfonyl)methylene]azetidine) or sibutramine by the oral route (see table below).
The sibutramine is dissolved in a 0.5% methylcellulose/0.2% polysorbate 80 solution and administered at a dose of 3 mg/kg; the CB1 receptor antagonist is dissolved in miglyol 812N (Hüls, Germany) at a dose of 0.6 mg/kg and the two products are administered under a volume of 1 ml/kg. Each group is composed of 12 to 14 animals. […]
The food consumption of each animal is measured every day. The results are expressed as mean amount of food consumed during the 5 days of treatment.

Compound | Food consumption during the 5 days of treatment (CB1 receptor antagonist 0.6 mg/kg oral in miglyol (then methylcellulose/polysorbate vehicle), vehicles 25.52 ± 0.30, p < 0.01) [g] | Food consumption during the 5 days of treatment (sibutramine 3 mg/kg oral (after miglyol), mean amount of food consumed, vehicles 25.52 ± 0.30, p < 0.05) [g]
CS(=O)(=O)C(=C1CN(C(c2ccc(Cl)cc2)c2ccc(Cl)cc2)C1)c1cc(F)cc(F)c1 [CB1 receptor antagonist, 1-[bis(4-chlorophenyl)methyl]-3-[(3,5-difluorophenyl)-(methylsulfonyl)methylene]azetidine] | 24.00 ± 0.24 | –
CC(C)CC(N(C)C)C1(c2ccc(Cl)cc2)CCC1 (centres unmarked) [sibutramine, N-{1-[1-(4-chloro-phenyl)cyclobutyl]-3-methylbutyl}-N,N-dimethylamine] | – | 24.60 ± 0.32
